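Assay format: 96-well plates, 48-hour exposure. Definition used: TGI = concentration required for complete inhibition of growth.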
Legend:
Assay in all cases: inhibition of tumour cell growth, NCI panel, 48 h
786-0 renal = test system: 786-0 renal
A498 renal = test system: A498 renal
A549 NSCLC = test system: A549 NSCLC
ACHN renal = test system: ACHN renal
BT-549 breast = test system: BT-549 breast
CAKI-1 renal = test system: CAKI-1 renal
CCRF-CEM leukemia = test system: CCRF-CEM leukemia
COLO 205 colon = test system: COLO 205 colon
DU-145 prostate = test system: DU-145 prostate
EKVX NSCLC = test system: EKVX NSCLC
HCC-2998 colon = test system: HCC-2998 colon
HCT-116 colon = test system: HCT-116 colon
HCT-15 colon = test system: HCT-15 colon
HL-60(TB) leukemia = test system: HL-60(TB) leukemia
HOP-62 NSCLC = test system: HOP-62 NSCLC
HS 578T breast = test system: HS 578T breast
HT29 colon = test system: HT29 colon
IGROV1 ovarian = test system: IGROV1 ovarian
K-562 leukemia = test system: K-562 leukemia
KM12 colon = test system: KM12 colon
LOX IMVI melanoma = test system: LOX IMVI melanoma
M14 melanoma = test system: M14 melanoma
MALME-3M melanoma = test system: MALME-3M melanoma
MCF7 breast = test system: MCF7 breast
MDA-MB-231 breast = test system: MDA-MB-231 breast
MDA-MB-435 = test system: MDA-MB-435
MDA-N = test system: MDA-N
MOLT-4 leukemia = test system: MOLT-4 leukemia
NCI-H23 lung = test system: NCI-H23 lung
NCI-H460 lung = test system: NCI-H460 lung
NCI-H522 lung = test system: NCI-H522 lung
NCI/ADR-RES ovarian = test system: NCI/ADR-RES ovarian
OVCAR-3 ovarian = test system: OVCAR-3 ovarian
OVCAR-4 ovarian = test system: OVCAR-4 ovarian
OVCAR-5 ovarian = test system: OVCAR-5 ovarian
OVCAR-8 ovarian = test system: OVCAR-8 ovarian
PC-3 prostate = test system: PC-3 prostate
RPMI-8226 leukemia = test system: RPMI-8226 leukemia
RXF 393 renal = test system: RXF 393 renal
SF-268 CNS = test system: SF-268 CNS
SF-295 CNS = test system: SF-295 CNS
SF-539 CNS = test system: SF-539 CNS
SK-MEL-2 melanoma = test system: SK-MEL-2 melanoma
SK-MEL-28 melanoma = test system: SK-MEL-28 melanoma
SK-MEL-5 melanoma = test system: SK-MEL-5 melanoma
SK-OV-3 ovarian = test system: SK-OV-3 ovarian
SN12C renal = test system: SN12C renal
SNB-19 CNS = test system: SNB-19 CNS
SNB-75 CNS = test system: SNB-75 CNS
SW-620 colon = test system: SW-620 colon
T-47D breast = test system: T-47D breast
TK-10 renal = test system: TK-10 renal
U251 CNS = test system: U251 CNS
UACC-257 melanoma = test system: UACC-257 melanoma
UACC-62 melanoma = test system: UACC-62 melanoma
UO-31 renal = test system: UO-31 renal
HOP-92 NSCLC = test system: HOP-92 NSCLC
NCI-H226 lung = test system: NCI-H226 lung
SR leukemia = test system: SR leukemia

S=C(S)NCC1CCC(CNC(=S)S)CC1 (configuration not stated)
TGI (786-0 renal): 18.6 µM
TGI (A498 renal): > 100 µM
TGI (A549 NSCLC): > 100 µM
TGI (ACHN renal): 39.2 µM
TGI (BT-549 breast): > 100 µM
TGI (CAKI-1 renal): 30.6 µM
TGI (CCRF-CEM leukemia): > 100 µM
TGI (COLO 205 colon): > 100 µM
TGI (DU-145 prostate): 63.4 µM
TGI (EKVX NSCLC): > 100 µM
TGI (HCC-2998 colon): 48.3 µM
TGI (HCT-116 colon): 42.5 µM
TGI (HCT-15 colon): 65 µM
TGI (HL-60(TB) leukemia): > 100 µM
TGI (HOP-62 NSCLC): 42.9 µM
TGI (HS 578T breast): > 100 µM
TGI (HT29 colon): 42.3 µM
TGI (IGROV1 ovarian): 33.9 µM
TGI (K-562 leukemia): > 100 µM
TGI (KM12 colon): 42.5 µM
TGI (LOX IMVI melanoma): 40.8 µM
TGI (M14 melanoma): > 100 µM
TGI (MALME-3M melanoma): 63.1 µM
TGI (MCF7 breast): 81.3 µM
TGI (MDA-MB-231 breast): 70.1 µM
TGI (MDA-MB-435): 61.4 µM
TGI (MDA-N): 81.4 µM
TGI (MOLT-4 leukemia): 65.2 µM
TGI (NCI-H23 lung): > 100 µM
TGI (NCI-H460 lung): > 100 µM
TGI (NCI-H522 lung): 28 µM
TGI (NCI/ADR-RES ovarian): > 100 µM
TGI (OVCAR-3 ovarian): 30.3 µM
TGI (OVCAR-4 ovarian): > 100 µM
TGI (OVCAR-5 ovarian): > 100 µM
TGI (OVCAR-8 ovarian): 47.9 µM
TGI (PC-3 prostate): 37.5 µM
TGI (RPMI-8226 leukemia): > 100 µM
TGI (RXF 393 renal): 40.6 µM
TGI (SF-268 CNS): > 100 µM
TGI (SF-295 CNS): > 100 µM
TGI (SF-539 CNS): > 100 µM
TGI (SK-MEL-2 melanoma): 58.3 µM
TGI (SK-MEL-28 melanoma): > 100 µM
TGI (SK-MEL-5 melanoma): > 100 µM
TGI (SK-OV-3 ovarian): > 100 µM
TGI (SN12C renal): 44 µM
TGI (SNB-19 CNS): > 100 µM
TGI (SNB-75 CNS): > 100 µM
TGI (SW-620 colon): > 100 µM
TGI (T-47D breast): 38.9 µM
TGI (TK-10 renal): 51.7 µM
TGI (U251 CNS): 43 µM
TGI (UACC-257 melanoma): 87.1 µM
TGI (UACC-62 melanoma): > 100 µM
TGI (UO-31 renal): 47.5 µM

O=C(NCc1ccc(Cl)cc1)c1cc2sccc2nc1C(F)(F)F
TGI (786-0 renal): 39.8 µM
TGI (A549 NSCLC): > 100 µM
TGI (ACHN renal): 45.8 µM
TGI (BT-549 breast): > 100 µM
TGI (CAKI-1 renal): > 100 µM
TGI (CCRF-CEM leukemia): > 100 µM
TGI (COLO 205 colon): > 100 µM
TGI (EKVX NSCLC): > 100 µM
TGI (HCT-116 colon): > 100 µM
TGI (HOP-62 NSCLC): 56.2 µM
TGI (HOP-92 NSCLC): > 100 µM
TGI (HS 578T breast): 47.6 µM
TGI (HT29 colon): > 100 µM
TGI (IGROV1 ovarian): > 100 µM
TGI (K-562 leukemia): > 100 µM
TGI (KM12 colon): > 100 µM
TGI (M14 melanoma): > 100 µM
TGI (MALME-3M melanoma): > 100 µM
TGI (MCF7 breast): > 100 µM
TGI (MDA-MB-231 breast): > 100 µM
TGI (MDA-MB-435): > 100 µM
TGI (MDA-N): > 100 µM
TGI (MOLT-4 leukemia): > 100 µM
TGI (NCI-H226 lung): 50 µM
TGI (NCI-H23 lung): > 100 µM
TGI (NCI-H522 lung): 95.2 µM
TGI (NCI/ADR-RES ovarian): > 100 µM
TGI (OVCAR-3 ovarian): 98.4 µM
TGI (OVCAR-4 ovarian): 44.8 µM
TGI (OVCAR-5 ovarian): > 100 µM
TGI (OVCAR-8 ovarian): 72.1 µM
TGI (PC-3 prostate): > 100 µM
TGI (RPMI-8226 leukemia): > 100 µM
TGI (RXF 393 renal): 67.4 µM
TGI (SF-268 CNS): 66.9 µM
TGI (SF-295 CNS): > 100 µM
TGI (SF-539 CNS): 70 µM
TGI (SK-MEL-2 melanoma): > 100 µM
TGI (SK-MEL-28 melanoma): > 100 µM
TGI (SK-MEL-5 melanoma): > 100 µM
TGI (SK-OV-3 ovarian): > 100 µM
TGI (SN12C renal): > 100 µM
TGI (SNB-19 CNS): 51.7 µM
TGI (SR leukemia): > 100 µM
TGI (SW-620 colon): > 100 µM
TGI (T-47D breast): > 100 µM
TGI (TK-10 renal): > 100 µM
TGI (U251 CNS): 44.6 µM
TGI (UACC-257 melanoma): > 100 µM
TGI (UACC-62 melanoma): > 100 µM
TGI (UO-31 renal): > 100 µM

Reference: PubChem BioAssay (NCI)
